Assay results as given in ChEMBL document CHEMBL1131178, “Novel disaccharide inhibitors of human glioma cell division” (1998).

tested on: C6; assay: Inhibitory activity against rat C6 Glioma cells stimulated with Fetal bovine serum; Not detectable; assay type: functional, cell-based

Row | Structure (SMILES) | ID50
1 | CCCCCCCCOC1OC(COCC(CO)(CO)CO)C(O)C(OC2OC(C)C(O)C(O)C2O)C1NC(C)=O (centres undefined) | Not detectable
2 | CCCCCCCCO[C@H]1O[C@@H](COCC(CO)(CO)COS(=O)(=O)O)C(O)[C@H](O[C@@H]2O[C@@H](C)[C@@H](O)[C@H](O)[C@@H]2O)[C@@H]1NC(C)=O (some centres undefined) | Not detectable
3 | CCCCCCCCO[C@H]1O[C@@H](COCC(CO)(CO)COS(=O)(=O)O)[C@@H](OCC(CO)(CO)COS(=O)(=O)O)[C@H](O[C@@H]2O[C@@H](C)[C@@H](O)[C@H](O)[C@@H]2O)[C@@H]1NC(C)=O | Not detectable
4 | CCCCCCCCO[C@H]1O[C@@H](CO)[C@@H](OCC(CO)(CO)COS(=O)(=O)O)[C@H](O[C@@H]2OC(C)[C@@H](O)[C@H](O)[C@@H]2O)[C@@H]1NC(C)=O (some centres undefined) | Not detectable
